Measured values taken from patent US9364449B2, “Peptoid and synthetic oligomers, pharmaceutical compositions and methods of using same” (New York University, priority 2011, dated 2016).
Entries after “also recorded” stand apart in the source; their conditions may differ. Non-standard residues stand in square brackets, D forms with d. Residues, ends and D or L forms follow the SMILES beside them. No end group written: not given here. Sar = CNCC(=O)O

Assays:
[1] = test system: SK-N-SH human neuroblastoma cells; assay: MTT toxicity assay; details: four day MTT cytotoxicity assay
Description: SK-N-SH cells were plated at 10,000 cells/100 μl per well in flat-bottom, 96-well microtiter plates and incubated with 1-100 μmol/L concentrations of tested peptides for two days after which cell viability was assessed using a metabolic assay, which is based on cleavage of the yellow tetrazolium salt (MTT) to purple formazan crystals by viable cells. The MTT assay (Roche Molecular Biochemicals, Indianapolis, Ind.) was performed according to the manufacturer's instructions.

Aβ1-40 [2] = target: T1, Aβ1-40 (Homo sapiens, UniProt P05067); assay: Thioflavine-T aggregation assay, Aβ1-40 aggregated in the presence of compound; format: biochemical
T1 construct: made in house; host or cells: chemical solid-phase peptide synthesis (L-amino acids), RP-HPLC purified
T1 sequence (P05067 672-711): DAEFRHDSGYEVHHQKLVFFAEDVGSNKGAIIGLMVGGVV
Description: (§1) Peptoid modified derivatives of the KLVFFA (SEQ ID NO: 4) sequence were tested using Thioflavine-T aggregation assay to determine whether or not they are capable of forming fibrils themselves. […] In these treatment experiments, 100 μM Aβ40 or Aβ42 was mixed with 1-100 μM of the investigated compound and incubated up to 14 days. […] They were incubated alone or in the presence of peptoid modified derivatives of KLVFFA (SEQ ID NO: 4) sequence at concentrations of 1-100 μM. In addition, peptoid modified derivatives of KLVFFA (SEQ ID NO: 4) sequence were incubated alone as indicated above at the concentration of 100 μM. At the indicated intervals, samples containing 15 μg of incubated peptides were added to 1 mL of 50 mM/L glycine, pH 9.2 and 2 μM/L of Thioflavin-T (Sigma Chemical, Co.; St. Louis, Mo.). Fluorescence was measured at excitation 435 nm and emission 485 nm in a Hitachi F-2000 fluorescence spectrophotometer. A time scan of fluorescence was performed and three values after the decay reached a plateau (280, 290, 300 seconds) were averaged. The background fluorescence of 40 μl of Tris buffer added to 2 μM/L of Thioflavin-T solution was subtracted. Samples were run in duplicate. Differences in amount of fibrils formed by different peptides at particular time points were evaluated by one-way ANOVA followed by Tukey post hoc test.

[3] = Thioflavine-T aggregation assay, compound incubated alone (own fibril formation); format: physicochemical; details: compound alone at 100 μM
Description: as §1

Aβ1-40 [4] = target: T1, Aβ1-40; assay: Oligomerization assay (glutaraldehyde cross-linking, Western blot, densitometry); format: biochemical; details: 100 μM Aβ1-40 with 10 μM compound (10:1 Aβ:inhibitor), 4° C., 24 h
Description: Autoradiography films were converted into 8 bit grayscale digital files using a Epson Perfection 4990 scanner (Epson America; Long Beach, Calif.) and Adobe Photoshop CS4 (Adobe Systems; San Jose, Calif.) and saved in a TIF format with a resolution of 600 dpi. Densitometric analysis of Western and dot-blot signals was performed using NIH Image J software v 1.42 (Bethesda, Md.) as previously described (Pankiewicz et al., 2006. Eur. J. Neurosci. 23, 2635-47; Sadowski et al., 2009. Neurobiol Dis; 34, 267-78).
The rationale is that Aβ oligomeric assemblies are particularly toxic to synaptic components and impair neurotransmission. […] GKLVFNmgA (SEQ ID NO: 310:1 Aβ:inhibitor ratio). Prior to electrophoresis, glutaraldehyde (0.4 mM final concentration) was added to prevent disassembly of complexes. Samples were immediately subjected to electrophoresis in non-reducing condition, Western-transfer, and detection with a mixture of 4G8 and 6E10 anti-Aβ Mabs.

[5] = test system: primary hippocampal neurons; assay: Immunocytochemistry and quantification of synaptic protein expression in neurons exposed to Aβ40; format: cell-based, C57bL/6 mice
Description: P0-P1 pups of C57bL/6 mice were killed by decapitation and brains were removed in aseptic conditions. To establish cultures of primary hippocampal neurons the hippocampi were dissected from both hemispheres under AmScope stereoscopic microscope (AmScope, Chino, Calif.). Fragments of tissue were placed in the ice-cold Ca^2+ and Mg^2+ free Hank's balanced salt solution (HBSS) and gently cut further into fine pieces which were then treated with 0.05% trypsin in HBSS for 10 min at 37° C. to obtain cell suspension. Following addition of 0.1% type-I-S trypsin inhibitor and 0.05% DNase I, the cell suspension was centrifuged at 500×g for 30 sec. The resulting pellet was triturated, centrifuged again at 500×g for 5 min and resuspended in the minimal essential medium (MEM) supplemented with heat-inactivated 10% fetal bovine serum (FBS), 0.5 mM glutamine, streptomycin (50 μg/ml) and penicillin (50 U/ml). The cell suspension was then filtered through a 70-μm mesh, and the cells were counted using hematocytometer (Hausser Scientific, Horsham, Pa.). The cells were seeded on poly-L-lysine coated 12-well plates. For biochemical analysis 5×10^5 cells were seeded directly on the bottom of each well whereas for immunohistochemistry a removable, poly-L-lysine coated round coverslip was placed on the bottom of the well and the number of seeded cells was reduced to 1×10^5 per well. The neurons were allowed to adhere to the surface for four hours and then the medium was replaced with the serum-free Neurobasal medium containing 2% B27 supplement, 0.5 mM glutamine, streptomycin (50 μg/ml) and penicillin (50 U/ml). At three days in vitro (DIV) 5 μM of cytosine-β-D-arabinoside (Ara C) was added for 48 hr to inhibit division of non-neuronal cells. At 7 DIV one well from each preparation of primary hippocampal neurons was randomly selected to determine the purity of the culture. This was done by calculating the ratio of cells immunostained against microtubule-associated protein 2 (MAP2), which is a neuronal specific marker against all cells stained with 4′,6-diamidino-2-phenylindole (DAPI) nucleic acid stain.
Monomerized Aβ40 peptides were diluted in cell culture media and added to neuronal monocultures for 24 or 72 hr.

[6] = test system: primary hippocampal neurons; assay: Accumulation of aggregated FITC labeled Aβ1-40 on the surface of neurons; format: cell-based, C57bL/6 mice; details: 18 DIV neurons, FITC labeled Aβ1-40, treated with compound
Description: P0-P1 pups of C57bL/6 mice were killed by decapitation and brains were removed in aseptic conditions. To establish cultures of primary hippocampal neurons the hippocampi were dissected from both hemispheres under AmScope stereoscopic microscope (AmScope, Chino, Calif.). Fragments of tissue were placed in the ice-cold Ca^2+ and Mg^2+ free Hank's balanced salt solution (HBSS) and gently cut further into fine pieces which were then treated with 0.05% trypsin in HBSS for 10 min at 37° C. to obtain cell suspension. Following addition of 0.1% type-I-S trypsin inhibitor and 0.05% DNase I, the cell suspension was centrifuged at 500×g for 30 sec. […] The cell suspension was then filtered through a 70-μm mesh, and the cells were counted using hematocytometer (Hausser Scientific, Horsham, Pa.). […]
Coverslip inserts covered by the primary hippocampal neuro^ns were immersed three times in PBS at 37° C., and then in 80% ice-cold methanol for 10 min to fix the neurons, and washed again three times in PBS. […] Biotinylated secondary antibodies (1:1,000) followed by Cy3 conjugated streptavidine (1:500) were used to detected binding of primary Abs to their antigens. […] Immunostained neurons were analyzed under 80i Nikon fluorescent microscope (Nikon Corp. Tokyo, Japan). […]

[7] = test system: primary hippocampal neurons; assay: Intraneuronal Aβ accumulation (Western blot of neuronal lysates, densitometry); format: cell-based, C57bL/6 mice; details: 10 μM Aβ40 with or without compound, p<0.01
Description: P0-P1 pups of C57bL/6 mice were killed by decapitation and brains were removed in aseptic conditions. To establish cultures of primary hippocampal neurons the hippocampi were dissected from both hemispheres under AmScope stereoscopic microscope (AmScope, Chino, Calif.). Fragments of tissue were placed in the ice-cold Ca^2+ and Mg^2+ free Hank's balanced salt solution (HBSS) and gently cut further into fine pieces which were then treated with 0.05% trypsin in HBSS for 10 min at 37° C. to obtain cell suspension. Following addition of 0.1% type-I-S trypsin inhibitor and 0.05% DNase I, the cell suspension was centrifuged at 500×g for 30 sec. The resulting pellet was triturated, centrifuged again at 500×g for 5 min and resuspended in the minimal essential medium (MEM) supplemented with heat-inactivated 10% fetal bovine serum (FBS), 0.5 mM glutamine, streptomycin (50 μg/ml) and penicillin (50 U/ml). The cell suspension was then filtered through a 70-μm mesh, and the cells were counted using hematocytometer (Hausser Scientific, Horsham, Pa.). The cells were seeded on poly-L-lysine coated 12-well plates. For biochemical analysis 5×10^5 cells were seeded directly on the bottom of each well whereas for immunohistochemistry a removable, poly-L-lysine coated round coverslip was placed on the bottom of the well and the number of seeded cells was reduced to 1×10^5 per well. […]

[8] = test system: eAβ1-x in brain interstitial fluid (ISF); assay: In vivo microdialysis of brain interstitial fluid eAβ in AD transgenic mice; design: species or system APPSW/PS1L166P AD transgenic mice; details: 100 μM compound by reverse microdialysis into hippocampal CA1
Description: Mice were anesthetized with an intraperitoneal injection of Ketamine (50 mg/kg) and Xylazine (10 mg/kg). An MBR-10 guide cannula was stereotactically implanted into the right hippocampus (bregma −3.1 mm, 2.4 mm lateral, 12° angle). Four hours later mice were anesthetized again for the insertion of a BR-4 microdialysis probe with 38 kDa molecular weight cutoff (MWCO) membrane (Cirrito et al., 2008. 2008. Neuron; 58, 42-51) which was introduced through the implanted guide cannula. The probe was positioned so that the microdialysis membrane was almost entirely embedded in the strata radiatum and lacunosum-moleculare of the CA1 hippocampal sector (FIG. 8A). […]
eAβ level in the ISF dialyzate was determined using sandwich ELISA specific for human Aβ1-x. […] Absorbance was read on the Epoch Microplate Spectrophotometer (BioTek Instruments, Inc. Winooski, Vt.). Following background subtraction, absorbance values from serially diluted synthetic Aβ samples were used to generate a standard curve in GraphPad Prism v5.02 (GraphPad Software, Inc., San Diego) using a non-linear curve-fitting algorithm. eAβ concentration in dialysate samples was determined by comparing their absorbance values against the standard curve. […]

[9] = In vivo pharmacokinetic studies in rats
[10] = 18 DIV neurons, 10 μM Aβ40 plus 5 μM compound, 72 hr

Row | Molecule | concentration at which toxicity was exhibited in MTT assay [1] [µM] | inhibitory effect on the aggregation of Aβ1-40 (Aβ1-40 [2]; 1 μM compound, 100 μM Aβ1-40 (1:100 compound:Aβ ratio), p<0.001) | dose dependent effect on aggregation of Aβ1-40 (Aβ1-40 [2]; 100 μM Aβ1-40, 1-100 μM compound) | fibril formation by the compound itself [3] | reduction of the amount of Aβ oligomers (densitometric analysis) (Aβ1-40 [4]) [%] | NR1 NMDA receptor subunit positive densities, % of the control [5, 10] | PSD-95 positive densities, % of the control [5, 10] | synaptophysin positive densities, % of the control [5, 10] | effect of compound alone on the expression of NR1, synaptophysin and PSD-95 ([5]; neurons treated with compound alone, no Aβ) | accumulation of aggregated Aβ1-40 on the surface of neurons [6] | less Aβ accumulated in neurons after six hr of exposure ([7]; 6 hr) [%] | less Aβ accumulated in neurons after 24 hr of exposure ([7]; 24 hr) [%] | hour after the infusion onset from which the increase in eAβ was observed [8] | blood brain barrier (BBB) penetration [9] | detection in the cerebrospinal fluid (CSF) ([9]; following intravenous administration) | level in plasma after intranasal delivery ([9]; intranasal) | level in plasma following oral delivery ([9]; oral) | half-life ([9]; rat, in vivo) [h]
1 | GKLVFFA-NH2 [GKLVFFA] | 100 |  |  |  |  |  |  |  |  |  |  |  |  |  |  |  |  | 
2 | CC(C)CC(NC(=O)C(CCCCN)NC(=O)CN)C(=O)NC(C(=O)NC(Cc1ccccc1)C(=O)N(C)CC(=O)NC(C)C(N)=O)C(C)C (stereo not drawn) [GKLVFNmgA] (H-GKLVF[Sar]A-NH2; configuration not given here) |  | strong inhibitory effect | strong dose dependent effect | did not form fibrils itself; also recorded: does not form fibrils itself | 61.3 | 83 % of the control | 82.3 % of the control | 84.5 % of the control | no significant effect | Reduction in the number of AB aggregates; also recorded: Reduced accumulation | 29.8 | 49.3 | seventh | good | can be detected | High level | Lesser level | < 2
